System in one data set: not listed separately
The data set can be described thus: Mouse pharmacokinetic (PK) study. To be noted: male, BALB/c, plasma, po, 10 mg/kg, IV 2 mg/kg, read-out: oral bioavailability (% F). It counts as in vivo, male BALB/c mice. The text has this:
The mouse was used to determine the pharmacokinetics of compounds of the invention. This species is widely used to assess the bioavailability of compounds by administering both oral (PO) and intravenous (IV) test articles. Efficacy of the compounds of the invention was compared by assessing plasma exposure in male BALB/c mice either via IV or PO administration at the times of peak activity.
Compounds of the invention were reconstituted in a phosphate buffered saline (PBS)/10% Solutol (HS 15) clear solution resulting in a concentration of 0.2 mg/mL and administered to mice (2 mg/kg) as a single IV dose. Animals were dosed via the lateral tail vein. Blood samples were collected at designated time points (0.083, 0.25, 0.5, 1, 2, 4, 8, 16, 24 hours) by cardiac puncture under isoflurane anesthesia (up to 1 mL blood per animal). The blood was collected into tubes containing Li-Heparin. The blood samples were kept on ice until centrifugation within approximately 30 minutes of collection. The plasma was transferred into labeled polypropylene tubes and frozen at −70° C. until analyzed by LC/MS/MS.
The compounds of the invention were reconstituted in 40% Propylene Glycol/40% Propylene Carbonate/20% of a 5% Sucrose clear solution resulting in a concentration of 2 mg/mL and administered to mice (10 mg/kg) as a single oral dose via gavage. Blood samples were collected at 0.25, 0.5, 1, 2, 4, 8, 12, 16, 20 and 24 hours post dose by cardiac puncture under isoflurane anesthesia. The blood was collected in tubes containing Li-Heparin. […] The plasma was transferred into labeled polypropylene tubes and frozen at −70° C. until analyzed by LC/MS/MS.
Plasma samples at each timepoint were analyzed using a LC-MS/MS with a lower limit of quantification (LLOQ) of 1 ng/mL. Plasma was analyzed to determine the amount of the compound of the invention in each sample and regression curves generated for each compounds of the invention in the relevant matrixes. […]
In addition to the above PK parameters, bioavailability (% F) was calculated.
T1 sequence (P11766 whole entry): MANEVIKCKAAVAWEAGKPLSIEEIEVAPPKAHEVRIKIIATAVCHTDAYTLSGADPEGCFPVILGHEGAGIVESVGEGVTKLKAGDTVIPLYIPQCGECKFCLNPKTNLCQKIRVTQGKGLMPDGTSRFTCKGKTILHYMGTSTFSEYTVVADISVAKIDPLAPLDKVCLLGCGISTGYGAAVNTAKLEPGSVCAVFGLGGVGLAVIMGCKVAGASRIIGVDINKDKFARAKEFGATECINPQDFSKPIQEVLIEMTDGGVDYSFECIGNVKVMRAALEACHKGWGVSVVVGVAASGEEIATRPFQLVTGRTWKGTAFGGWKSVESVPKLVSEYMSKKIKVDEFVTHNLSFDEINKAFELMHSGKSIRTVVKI
For orientation: bioavailability means the share of a dose that reaches the circulation, judged against a reference dose that is usually intravenous. Regarding `O=C(O)c1ccc(-c2nc3ccc(O)cc3cc2Cl)cc1` [Example 19, 4-(3-chloro-6-hydroxyquinolin-2-yl)benzoic acid], the bioavailability was > 9%.

As for `O=C(O)c1ccc(-c2nc3ccc(O)cc3cc2Cl)c(F)c1` [Example 28, 4-(3-chloro-6-hydroxyquinolin-2-yl)-3-fluorobenzoic acid], the bioavailability was > 9%.

The subject of the next data set is acute dextran sodium sulfate (DSS)-induced IBD. The data set is described as follows: Acute prophylactic model of DSS-induced IBD in mice. The data set is classed as in vivo, male C57Bl/6 mice. Particulars: oral 10 mg/kg/day for 10 consecutive days, prophylactic. The text has this: Acute and chronic models of dextran sodium sulfate (DSS)-induced IBD in mice were used to explore efficacy of GSNORi against this disease. Acute and chronic DSS-induced IBD are widely used and well characterized models that induce pathological changes in the colon similar to those observed in the human disease. In these models and in human disease, epithelial cells within the crypts of the colon are disrupted, leading to dysfunction of the epithelial barrier and the ensuing tissue inflammation, edema, and ulceration. GSNORi therapy may benefit IBD by restoring s-nitrosoglutathione (GSNO) levels, and thus prevent or reverse the epithelial barrier dysfunction. Experimental IBD was induced by administration of DSS in the drinking water of male C57Bl/6 mice (N=8 to 10 mice per group) for 6 consecutive days. GSNORi was dosed orally at doses of 0.1 to 10 mg/kg/day for 10 days starting two days prior to and continuing two days post DSS exposure. Two days post DSS exposure, the effect of GSNORi was assessed in a blinded fashion via endoscopy and histopathology using a five point scale ranging from a score=0 (normal tissue) through a score=4 (ulcerative tissue damage and marked pathological changes). Levels of circulating cytokines involved in inflammatory pathways were also assessed. The effect of GSNORi was compared to vehicle treated controls. The corticosteroid, prednisolone, was used as the positive control in this study and was administered daily at 3 mg/kg/day via oral dosing. Naïve mice (N=5) were also assessed as a normal tissue control.
On to `O=C(O)c1ccc(-c2nc3ccc(O)cc3cc2Cl)cc1` [Example 19, 4-(3-chloro-6-hydroxyquinolin-2-yl)benzoic acid], for which the “decrease of percent of mice with severe colon injury scores via endoscopy” value is 31 % of vehicle control.

The test system of a further data set is cigarette smoke-induced COPD (subchronic 11 day). The data set can be described thus: Subchronic (11 day) cigarette smoke exposure COPD model. The data set is classed as in vivo, female C57Bl/6 mice. Particulars: subchronic 11 day model; roflumilast 5 mg/kg/day. How it is done:
The efficacy of GSNOR inhibitors was assessed in a mouse model of chronic obstructive pulmonary disease (COPD) induced by short duration (4 days or 11 days) of exposure to cigarette smoke. Infiltration of inflammatory cells into the bronchoalveolar lavage fluid (BALF) and BALF levels of chemokines involved in inflammation and tissue turnover/repair were measured to assess the influences of GSNOR inhibitors on some of the early events associated with the initiation and progression of COPD.
Efficacy of GSNOR inhibitors against COPD was explored using acute (4 day) and subchronic (11 day) models of cigarette smoke-induced COPD in mice. […] In animal models, changes in lung pathology are only evident after extended (several months) duration of exposure to cigarette smoke, thus making chronic models prohibitive as effective screening tools. More recently, models exploring inflammatory responses after short duration (2 weeks or less) of smoke exposure in mice have been utilized as tools for screening efficacy and mechanisms of action of novel therapeutics against COPD. The key roles of inflammation in the initiation and progression of COPD, make these short duration models relevant for initial tests of efficacy of novel therapeutics.
Subchronic (11 Day) Smoke Exposure Model: Female C57Bl/6 mice (N=10 per group) were exposed to cigarette smoke generated from Marlboro 100 cigarettes without filters. Exposure times were 25 min. on study day 1, 35 min. on study day 2, and 45 min. on study days 3 to 11. GSNOR inhibitors were administered one hour prior to smoke exposure on each day. GSNOR inhibitors were dosed orally at 1 to 10 mg/kg/day for 11 days. The effects of GSNOR inhibitors were assessed by quantitating the number of total cells, and leukocytes differentials in the BALF via light microscopy at 24 h after the last exposure. The effect of GSNOR inhibitors were compared to vehicle treated controls and expressed as percent inhibition of the cigarette smoke induced increases in BALF cell numbers. Roflumilast was used as the positive control for the study and was dosed at 5 mg/kg/day. A group of naïve mice (N=10) was exposed to air and dosed with vehicle as a negative control for the study.
As to `O=C(O)c1ccc(-c2ccc3cc(O)ccc3n2)c(F)c1` [Example 13, 3-fluoro-4-(6-hydroxyquinolin-2-yl)benzoic acid], the “effects compared to roflumilast (positive control)” value is reported as “comparable to those of roflumilast”.

Take `Cc1cc(C(=O)O)ccc1-c1ccc2cc(O)ccc2n1` [Example 27, 4-(6-hydroxyquinolin-2-yl)-3-methylbenzoic acid]: the “effects compared to roflumilast (positive control)” value is on record as “comparable to those of roflumilast”.

The next data set has as its target T1, GSNOR (Homo sapiens, UniProt P11766).
T1 construct: made in house; host or cells: E. coli (arabinose-induced)
The data set is described as follows: GSNOR assay (inhibition of GSNOR activity, NADH absorbance at 340 nm). Particulars: printed as 'about <'; 0.240 mM GSNO, 0.300 mM NADH, pH 7.4, 25° C. It counts as biochemical. How it is done: GSNOR expression and purification is described in Biochemistry 2000, 39, 10720-10729.
GSNOR Fermentation: Pre-cultures were grown from stabs of a GSNOR glycerol stock in 2XYT media containing 100 ug/ml ampicillin after an overnight incubation at 37° C. Cells were then added to fresh 2XYT (4 L) containing ampicillin and grown to an OD (A600) of 0.6-0.9 at 37° C. before induction. GSNOR expression was induced with 0.1% arabinose in an overnight incubation at 20° C.
GSNOR Purification: E. coli cell paste was lysed by nitrogen cavitation and the clarified lysate purified by Ni affinity chromatography on an AKTA FPLC (Amersham Pharmacia). The column was eluted in 20 mM Tris pH 8.0/250 mM NaCl with a 0-500 mM imidazole gradient. Eluted GSNOR fractions containing the Smt-GSNOR fusion were digested overnight with Ulp-1 at 4° C. to remove the affinity tag then re-run on the Ni column under the same conditions. GSNOR was recovered in the flowthrough fraction and for crystallography is further purified by Q-Sepharose and Heparin flowthrough chromatography in 20 mM Tris pH 8.0, 1 mM DTT, 10 uM ZnSO4.
GSNOR Assay: GSNO and enzyme/NADH Solutions are made up fresh each day. The solutions are filtered and allowed to warm to room temperature. GSNO solution: 100 mM NaPO4 (pH 7.4), 0.480 mM GSNO. 396 μL of GSNO Solution is added to a cuvette followed by 8 μL of test compound in DMSO (or DMSO only for full reaction control) and mixed with the pipette tip. Compounds to be tested are made up at a stock concentration of 10 mM in 100% DMSO. 2 fold serial dilutions are done in 100% DMSO. 8 μL of each dilution are added to an assay so that the final concentration of DMSO in the assay is 1%. The concentrations of compounds tested range from 100 to 0.003 μM. Enzyme/NADH solution: 100 mM NaPO4 (pH 7.4), 0.600 mM NADH, 1.0 μg/mL GSNO Reductase. 396 μL of the Enzyme/NADH solution is added to the cuvette to start the reaction. The cuvette is placed in the Cary 3E UV/Visible Spectrophotometer and the change in 340 nm absorbance/min at 25° C. is recorded for 3 minutes. The assays are done in triplicate for each compound concentration. IC50's for each compound are calculated using the standard curve analysis in the Enzyme Kinetics Module of SigmaPlot.
Final assay conditions: 100 mM NaPO4, pH 7.4, 0.240 mM GSNO, 0.300 mM NADH, 0.5 μg/mL GSNO Reductase, and 1% DMSO. Final volume: 800 μL/cuvette.
Usually IC50 stands for the point on the concentration scale where inhibition reaches its midpoint. High values mean weaker potency in that assay, low ones greater potency in that assay. Turning to `O=C(O)[C@H]1CC[C@H](c2ccc3cc(O)ccc3n2)CC1` [Example 6, (1r,4r)-4-(6-hydroxyquinolin-2-yl)cyclohexanecarboxylic acid], the IC50 was < 500 nM.

Regarding `O=C(O)c1ccc(-c2ccc3cc(O)ccc3n2)c(C(F)(F)F)c1` [Example 30, 4-(6-hydroxyquinolin-2-yl)-3-(trifluoromethyl)benzoic acid], the half-maximal inhibitory concentration (IC50) was < 100 nM.

For the molecule `O=C(O)c1ccc(-c2nc3ccc(O)cc3cc2C(F)(F)F)cc1` [Example 31, 4-(6-hydroxy-3-(trifluoromethyl)quinolin-2-yl)benzoic acid], the IC50 is < 100 nM.

For the molecule `O=C(O)c1ccc(-c2cc(F)c3cc(O)ccc3n2)c(Cl)c1` [Example 37, 3-chloro-4-(4-fluoro-6-hydroxyquinolin-2-yl)benzoic acid], the IC50 is < 100 nM.

Turning to `O=C(O)[C@H]1CC[C@H](c2nc3ccc(O)cc3cc2C(F)(F)F)CC1` [Example 43, (1r,4r)-4-(6-hydroxy-3-(trifluoromethyl)quinolin-2-yl)cyclohexanecarboxylic acid], the IC50 was < 100 nM.

`O=C(O)c1ccc(-c2ncc3cc(O)ccc3n2)cc1` [Example 45, 4-(6-hydroxyquinazolin-2-yl)benzoic acid]: the IC50 was < 100 nM.

In the case of `O=C(O)c1ccc(-c2cc3ccc(O)cc3cn2)c(F)c1` [Example 65, 3-fluoro-4-(7-hydroxyisoquinolin-3-yl)benzoic acid], the IC50 is < 100 nM.

(Values after patent publication US9221810B2, “Substituted bicyclic aromatic compounds as S-nitrosoglutathione reductase inhibitors” (Nivalis Therapeutics, Inc., priority 2010, dated 2015).)
